Reference: the NIST ThermoML archive (doi:10.1021/je700499d)
± gives the expanded uncertainty stated by the source.

Test: xn = mol fraction of the nth substance listed
Conditions: 101 kPa, Liquid

OCCCCO [1,4-butanediol] + OCCO
mass density [kg/m3]
Conditions | x1 = 0.0711 | x1 = 0.1469 | x1 = 0.2279 | x1 = 0.3147 | x1 = 0.4078 | x1 = 0.5081 | x1 = 0.6164 | x1 = 0.7337 | x1 = 0.8611 | x1 = 1
293.15 K | 1102.71 ± 0.6 | 1092.13 ± 0.58 | 1081.71 ± 0.57 | 1071.48 ± 0.56 | 1061.52 ± 0.54 | 1051.91 ± 0.53 | 1042.67 ± 0.52 | 1033.74 ± 0.51 | 1024.96 ± 0.5 | 1016.37 ± 0.49
298.15 K | 1099.09 ± 0.61 | 1088.58 ± 0.6 | 1078.21 ± 0.59 | 1068.02 ± 0.57 | 1058.12 ± 0.56 | 1048.56 ± 0.55 | 1039.34 ± 0.54 | 1030.4 ± 0.53 | 1021.64 ± 0.52 | 1013.04 ± 0.51
303.15 K | 1096.06 ± 0.63 | 1085.57 ± 0.62 | 1075.22 ± 0.61 | 1065.04 ± 0.59 | 1055.16 ± 0.58 | 1045.58 ± 0.57 | 1036.35 ± 0.56 | 1027.39 ± 0.55 | 1018.61 ± 0.54 | 1009.96 ± 0.53
308.15 K | 1092.51 ± 0.65 | 1082.1 ± 0.64 | 1071.84 ± 0.63 | 1061.7 ± 0.61 | 1051.85 ± 0.6 | 1042.33 ± 0.59 | 1033.12 ± 0.58 | 1024.17 ± 0.57 | 1015.41 ± 0.56 | 1006.75 ± 0.55
313.15 K | 1089.15 ± 0.67 | 1078.8 ± 0.66 | 1068.56 ± 0.65 | 1058.5 ± 0.64 | 1048.65 ± 0.62 | 1039.15 ± 0.61 | 1029.95 ± 0.6 | 1020.99 ± 0.59 | 1012.22 ± 0.58 | 1003.55 ± 0.57
318.15 K | 1085.69 ± 0.7 | 1075.44 ± 0.68 | 1065.32 ± 0.67 | 1055.33 ± 0.66 | 1045.62 ± 0.64 | 1036.15 ± 0.63 | 1027.01 ± 0.62 | 1018.1 ± 0.61 | 1009.36 ± 0.6 | 1000.72 ± 0.59
323.15 K | 1082.18 ± 0.72 | 1072.03 ± 0.7 | 1061.97 ± 0.69 | 1052.09 ± 0.68 | 1042.43 ± 0.67 | 1033.05 ± 0.65 | 1023.96 ± 0.64 | 1015.11 ± 0.63 | 1006.4 ± 0.62 | 997.8 ± 0.61
328.15 K | 1078.33 ± 0.74 | 1068.25 ± 0.72 | 1058.28 ± 0.71 | 1048.46 ± 0.7 | 1038.86 ± 0.69 | 1029.53 ± 0.67 | 1020.51 ± 0.66 | 1011.66 ± 0.65 | 1002.99 ± 0.64 | 994.41 ± 0.64

CC(O)CO (stereo not drawn) [1,2-propanediol] + OCCCCO
x2 = 0
Conditions | mass density [kg/m3]
293.15 K | 1036.57 ± 0.54
298.15 K | 1032.86 ± 0.56
303.15 K | 1029.15 ± 0.58
308.15 K | 1025.57 ± 0.6
313.15 K | 1021.44 ± 0.62
318.15 K | 1017.59 ± 0.64
323.15 K | 1013.74 ± 0.66
328.15 K | 1009.71 ± 0.68
